Test results from patent publication US8138168B1 (Takeda Pharmaceutical Company Limited, priority 2007, dated 2012).

molecular target: T1, Recombinant human renin (Homo sapiens, UniProt P00797); assay: In vitro enzymatic activity assay of renin inhibitors (fluorogenic peptide substrate); assay type: biochemical; conditions: read-out: IC50 of Exemplified Compounds Against Renin
T1 construct: isolate the active form (residues 67-406); made in house; host or cells: FreeStyle 293-F cells (transient expression of pcDNA3.1(+)/hREN)
T1 sequence (P00797 67-406): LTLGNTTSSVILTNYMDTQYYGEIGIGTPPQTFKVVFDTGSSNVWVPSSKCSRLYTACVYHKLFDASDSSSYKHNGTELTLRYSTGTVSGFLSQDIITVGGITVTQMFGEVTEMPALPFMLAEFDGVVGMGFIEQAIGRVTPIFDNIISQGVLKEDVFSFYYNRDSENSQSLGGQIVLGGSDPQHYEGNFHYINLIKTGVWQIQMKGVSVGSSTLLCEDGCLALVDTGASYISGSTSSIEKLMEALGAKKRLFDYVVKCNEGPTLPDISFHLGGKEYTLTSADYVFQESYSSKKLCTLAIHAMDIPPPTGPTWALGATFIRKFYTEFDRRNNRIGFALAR
Description: Test compounds in varying concentrations may be reacted with recombinant human renin in the presence of substrate, e.g., QXL520-γ-Abu-[…](HiLyteFluo488)-Arg-OH (Anaspec, San Jose, Calif.). […] Inhibition constants (IC50) may be calculated by non-linear curve fitting of the compound concentrations and fluorescence intensities to the standard IC50 equation.
Solutions of test compounds in varying concentrations mM final concentration) are prepared in dimethyl sulfoxide (DMSO) and then diluted into assay buffer comprising 50 mM Hepes, 1 mM EDTA, 1 mM DTT, 0.1 mg/mL BSA, 0.01% Brij35, pH 7.4. Alternatively, the assay can be performed with a high BSA concentration, wherein the buffer contains an additional 2% BSA.
Recombinant human renin (3 nM final concentration) is added to the dilutions and pre-incubated with the compounds for 10 minutes at 37° C. […] After pre-incubation, the reaction is initiated with of substrate QXL520-γ-Abu-[…](HiLyteFluo488)-Arg-OH (Anaspec, San Jose, Calif.). The final DMSO in the assay is 5%. The total volume of the reaction mixture is 20 μL, which can be placed on Greiner 384-well small volume plates.
The fluorescence intensity is determined upon the addition of substrate and determined again after incubation at 37° C. for one hour. The fluorescence intensity of a blank (no inhibition) using vehicle alone is also determined. Renin activity is linearly proportional to the change in fluorescence observed (final-initial).

Compound | IC50
COCCCn1c(C2CCCN(C(=O)C[C@@H](N)Cc3ccc(Cl)cc3)C2)nc2ccccc21 (stereo partly drawn) [Compound 67, (3S)-3-amino-4-(4-chlorophenyl)-1-(3-(1-(3-methoxypropyl)-1H-benzo[d]imidazol-2-yl)piperidin-1-yl)butan-1-one] | > 1 µM
COCCCn1c([C@H]2CCCN(C(=O)C[C@H](N)Cc3ccc(Cl)cc3)C2)nc2ccccc21 [Compound 68, (R)-3-amino-4-(4-chlorophenyl)-1-((S)-3-(1-(3-methoxypropyl)-1H-benzo[d]imidazol-2-yl)piperidin-1-yl)butan-1-one] | > 1 µM
COCCCn1c([C@@H]2CCCN(C(=O)C[C@@H](N)Cc3ccc(Cl)cc3)C2)nc2ccccc21 [Compound 69, (S)-3-amino-4-(4-chlorophenyl)-1-((R)-3-(1-(3-methoxypropyl)-1H-benzo[d]imidazol-2-yl)piperidin-1-yl)butan-1-one] | > 1 µM
COCCCn1c([C@H]2CCCN(C(=O)C[C@@H](N)Cc3ccc(Cl)cc3)C2)nc2ccccc21 [Compound 70, (S)-3-amino-4-(4-chlorophenyl)-1-((S)-3-(1-(3-methoxypropyl)-1H-benzo[d]imidazol-2-yl)piperidin-1-yl)butan-1-one] | > 1 µM
N[C@@H](CC(=O)N1CCC[C@@H](c2nc3ccccc3[nH]2)C1)Cc1ccc(-c2ccccc2)cc1 [Compound 71, (R)-1-((R)-3-(1H-benzo[d]imidazol-2-yl)piperidin-1-yl)-3-amino-4-(biphenyl-4-yl)butan-1-one] | > 1 µM
COCCCn1c([C@@H]2CCCN(C(=O)C[C@H](N)Cc3ccc4ccccc4c3)C2)nc2ccccc21 [Compound 74, (R)-3-amino-1((R)-3-(1-(3-methoxypropyl)-1H-benzo[d]imidazol-2-yl)piperidin-1-yl)-4-(naphthalen-2-yl)butan-1-one] | < 0.1 µM
COCCCn1c([C@@H]2CCCN(C(=O)C[C@H](N)Cc3ccc(Cl)cc3)C2)nc2ccccc21 [Compound 75, (R)-3-amino-4-(4-chlorophenyl)-1((R)-3-(1-(3-methoxypropyl)-1H-benzo[d]imidazol-2-yl)piperidin-1-yl)butan-1-one] | 0.1 to 1 µM
COCCCn1c([C@@H]2CCCN(C(=O)C[C@H](N)Cc3ccc(F)c(F)c3)C2)nc2ccccc21 [Compound 76, (R)-3-amino-4-(3,4-difluorophenyl)-1((R)-3-(1-(3-methoxypropyl)-1H-benzo[d]imidazol-2-yl)piperidin-1-yl)butan-1-one] | 0.1 to 1 µM
COCCCn1c([C@@H]2CCCN(C(=O)C[C@H](N)Cc3ccc(Cl)c(Cl)c3)C2)nc2ccccc21 [Compound 77, (R)-3-amino-4-(3,4-dichlorophenyl)-1((R)-3-(1-(3-methoxypropyl)-1H-benzo[d]imidazol-2-yl)piperidin-1-yl)butan-1-one] | 0.1 to 1 µM
COCCCn1c([C@@H]2CCCN(C(=O)C[C@H](N)Cc3ccncc3)C2)nc2ccccc21 [Compound 78, (R)-3-amino-1-((R)-3-(1-(3-methoxypropyl)-1H-benzo[d]imidazol-2-yl)piperidin-1-yl)-4-(pyridin-4-yl)butan-1-one] | > 1 µM
COCCCn1c([C@@H]2CCCN(C(=O)C[C@H](N)Cc3cccc(Cl)c3)C2)nc2ccccc21 [Compound 79, (R)-3-amino-4-(3-chlorophenyl)-1((R)-3-(1-(3-methoxypropyl)-1H-benzo[d]imidazol-2-yl)piperidin-1-yl)butan-1-one] | 0.1 to 1 µM
COCCCn1c([C@@H]2CCCN(C(=O)C[C@H](N)c3cccc(Br)c3)C2)nc2ccccc21 [Compound 80, (S)-3-amino-3-(3-bromophenyl)-1((R)-3-(1-(3-methoxypropyl)-1H-benzo[d]imidazol-2-yl)piperidin-1-yl)propan-1-one] | 0.1 to 1 µM
COCCCn1c([C@@H]2CCCN(C(=O)C[C@H](N)Cc3ccc4ccccc4c3)C2)nc2cc(Cl)c(Cl)cc21 [Compound 81, (R)-3-amino-1((R)-3-(5,6-dichloro-1-(3-methoxypropyl)-1H-benzo[d]imidazol-2-yl)piperidin-1-yl)-4-(naphthalen-2-yl)butan-1-one] | 0.1 to 1 µM
